pEC50: −log10 of the molar value.

In the first series the target is T1, Metabotropic glutamate receptor 2 (Homo sapiens, UniProt Q14416). Description: Binding affinity for human metabotropic glutamate receptor 2 in [35S]GTP gamma S binding assay; not active at < 10 uM. Type of series: functional.
Conditions: not given; call rule not given here
Target sequence in this assay (Q14416 whole entry): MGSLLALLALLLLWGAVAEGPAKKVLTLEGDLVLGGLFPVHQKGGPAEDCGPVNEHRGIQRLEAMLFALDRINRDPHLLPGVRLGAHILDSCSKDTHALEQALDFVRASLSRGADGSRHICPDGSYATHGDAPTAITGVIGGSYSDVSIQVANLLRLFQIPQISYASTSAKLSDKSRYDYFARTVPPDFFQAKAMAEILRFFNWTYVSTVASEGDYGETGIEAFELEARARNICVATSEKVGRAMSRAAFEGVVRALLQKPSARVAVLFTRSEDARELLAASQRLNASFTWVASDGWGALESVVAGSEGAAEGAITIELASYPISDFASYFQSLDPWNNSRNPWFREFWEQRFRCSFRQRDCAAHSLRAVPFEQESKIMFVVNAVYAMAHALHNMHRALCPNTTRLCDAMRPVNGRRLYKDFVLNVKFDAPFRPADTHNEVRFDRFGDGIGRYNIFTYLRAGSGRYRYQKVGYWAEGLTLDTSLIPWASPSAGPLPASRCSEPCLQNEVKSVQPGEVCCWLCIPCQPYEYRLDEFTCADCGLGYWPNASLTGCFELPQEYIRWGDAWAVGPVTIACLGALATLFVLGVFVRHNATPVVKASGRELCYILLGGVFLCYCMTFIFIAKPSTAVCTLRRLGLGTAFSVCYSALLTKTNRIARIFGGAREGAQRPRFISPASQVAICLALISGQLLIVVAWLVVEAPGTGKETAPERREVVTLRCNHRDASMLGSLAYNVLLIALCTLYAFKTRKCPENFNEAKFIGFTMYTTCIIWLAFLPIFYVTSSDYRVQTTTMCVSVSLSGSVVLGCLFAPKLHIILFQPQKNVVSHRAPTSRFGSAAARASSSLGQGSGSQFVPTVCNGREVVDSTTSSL
For the compound `Cc1c(OCCCSc2ccncc2)ccc(C(=O)CC(C)C)c1O`, the EC50 entry was “Not Active”.
Same read-out and setting: with `Cc1c(OCCCCCSc2ccncc2)ccc(C(=O)CC(C)C)c1O` the entry was “Not Active”.

Another series concerns the target T1, Metabotropic glutamate receptor 2. Description: Binding affinity towards human metabotropic glutamate receptor 2 determined by [35S]GTP gamma S binding assay. Type of series: functional.
Conditions: not given
Background: Binding of GTPγS marks nucleotide exchange on a G protein.
Target sequence in this assay (Q14416 whole entry): as above
Broadly, the pEC50 is the EC50 on a negative log10 scale, so that one unit is a factor of ten. Turning to `Cc1c(OCc2ccccc2Sc2ccncc2)ccc(C(=O)CC(C)C)c1O`, the pEC50 was 6.17.
Compound `Cc1c(OCCCCOc2cccnc2)ccc(C(=O)CC(C)C)c1O` had a pEC50 of 5.77.
The same measure, in the same setting: with `Cc1c(OCc2cccc(Sc3ccncc3)c2)ccc(C(=O)CC(C)C)c1O` the figure was 6.05; with `Cc1c(OCCCCOc2ccncc2)ccc(C(=O)CC(C)C)c1O`, 5.41.
The compound `Cc1c(OCc2ccc(CSc3ccncc3)cc2)ccc(C(=O)CC(C)C)c1O` had a pEC50 of 6.11.
For `Cc1c(OCCCCOc2ccccc2)ccc(C(=O)CC(C)C)c1O`, the pEC50 was 5.34. This pEC50 is 0.77 log units lower than that of the compound before.
On the same count and under the same terms, for `CC(C)CC(=O)c1ccc(OCCCCOc2cccc(F)c2F)c(Br)c1O` the value was 6.25; for `Cc1c(OCCCCSc2cccnc2)ccc(C(=O)CC(C)C)c1O`, 5.96.
Still for that read-out and setting: with `Cc1c(OCCCCSc2ccncc2)ccc(C(=O)CC(C)C)c1O` the figure was 6.47.
Same read-out and setting: for `Cc1c(OCc2cccc(CSc3ccncc3)c2)ccc(C(=O)CC(C)C)c1O` the value was 6.09; for `Cc1c(OCCCCOc2cccc(F)c2F)ccc(C(=O)CC(C)C)c1O`, 6.42.
As to `CC(C)CC(=O)c1ccc(OCCCCSc2ccncc2)c(Br)c1O`, the pEC50 is 6.17.
`Cc1c(OCCCCSc2ccccn2)ccc(C(=O)CC(C)C)c1O` showed a pEC50 of 5.81.
Same read-out and setting: with `Cc1c(OCc2ccc(Sc3ccncc3)cc2)ccc(C(=O)CC(C)C)c1O` the figure was 5.97.
Same read-out and setting: for `Cc1c(OCCCCOc2ccccn2)ccc(C(=O)CC(C)C)c1O` the value was 5.49.
Compound `Cc1c(OCCCCOc2ccccc2F)ccc(C(=O)CC(C)C)c1O` showed a pEC50 of 5.70.
On to `CC(C)CC(=O)c1ccc(OCCCCOc2ccccc2)c(Br)c1O`, for which the pEC50 was 5.82.
`Cc1c(OCc2ccc(Sc3ccncc3)cc2)ccc(C(=O)CC(C)(C)C)c1O` had a pEC50 of 6.24.
The compound `Cc1c(OCCCCOc2ccc(-n3cncn3)cc2)ccc(C(=O)CC(C)C)c1O` gave a negative logarithm of the EC50 (pEC50) of 5.37.
Still for that read-out and setting: for `CC(C)CC(=O)c1ccc(OCCCCOc2cccnc2)c(Br)c1O` the value was 6.24.

Tested on in the next series: not listed separately
Description: Compound level in rat brain was determined upon administration at 2 mpk iv or 10 mpk po. Type of series: ADME, organism-based. Particulars: in vivo, read-out: Concentration in Brain.
In the case of `Cc1c(OCCCCSc2ccncc2)ccc(C(=O)CC(C)C)c1O`, the concentration was found to be 400 nM.
Turning to `COc1ccccc1Oc1ccc(N(Cc2cccnc2)S(=O)(=O)CC(F)(F)F)cc1`, the concentration was 10 nM.
The same measure, in the same setting: for `Cc1c(OCc2cccc(CSc3ccncc3)c2)ccc(C(=O)CC(C)C)c1O` the value was 330 nM; for `Cc1c(OCc2ccc(Sc3ccncc3)cc2)ccc(C(=O)CC(C)(C)C)c1O`, 340 nM.

A further series concerns the target T1, Metabotropic glutamate receptor 2. The series can be described thus: Potentiation as percent of maximum glutamate response at 1 mM.
Conditions: not given
Target sequence in this assay (Q14416 19-872 limits assumed): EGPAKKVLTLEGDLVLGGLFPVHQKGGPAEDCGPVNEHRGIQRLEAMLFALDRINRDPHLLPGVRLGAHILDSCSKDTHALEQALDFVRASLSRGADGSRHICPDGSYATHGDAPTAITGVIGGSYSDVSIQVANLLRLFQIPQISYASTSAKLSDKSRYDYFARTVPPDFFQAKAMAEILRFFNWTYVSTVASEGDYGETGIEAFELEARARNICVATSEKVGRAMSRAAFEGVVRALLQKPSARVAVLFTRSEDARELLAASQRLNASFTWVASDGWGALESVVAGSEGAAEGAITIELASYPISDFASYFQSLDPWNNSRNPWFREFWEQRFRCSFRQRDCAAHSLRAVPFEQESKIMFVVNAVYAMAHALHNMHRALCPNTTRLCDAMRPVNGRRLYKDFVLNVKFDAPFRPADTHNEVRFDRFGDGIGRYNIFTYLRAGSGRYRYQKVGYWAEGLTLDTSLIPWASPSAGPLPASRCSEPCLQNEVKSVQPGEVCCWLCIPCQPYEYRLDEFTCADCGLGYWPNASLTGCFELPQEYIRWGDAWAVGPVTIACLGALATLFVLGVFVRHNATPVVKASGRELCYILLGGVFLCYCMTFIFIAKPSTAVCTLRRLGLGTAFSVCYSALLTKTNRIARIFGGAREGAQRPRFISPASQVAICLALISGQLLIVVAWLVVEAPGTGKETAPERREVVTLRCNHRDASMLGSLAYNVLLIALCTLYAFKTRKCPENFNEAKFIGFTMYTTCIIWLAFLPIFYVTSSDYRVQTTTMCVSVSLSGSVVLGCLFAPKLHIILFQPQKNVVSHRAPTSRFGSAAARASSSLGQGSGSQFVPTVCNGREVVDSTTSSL
`Cc1c(OCc2ccccc2Sc2ccncc2)ccc(C(=O)CC(C)C)c1O`: the Potentiation came out at 38%.
On to `Cc1c(OCCCCOc2cccnc2)ccc(C(=O)CC(C)C)c1O`, for which the Potentiation is 46%.
`Cc1c(OCc2cccc(Sc3ccncc3)c2)ccc(C(=O)CC(C)C)c1O`: the Potentiation was 58%.
On the same count and under the same terms, with `Cc1c(OCCCCOc2ccncc2)ccc(C(=O)CC(C)C)c1O` the figure was 40%; with `Cc1c(OCc2ccc(CSc3ccncc3)cc2)ccc(C(=O)CC(C)C)c1O`, 78%; with `Cc1c(OCCCCOc2ccccc2)ccc(C(=O)CC(C)C)c1O`, 24%.
On the same count and under the same terms, for `CC(C)CC(=O)c1ccc(OCCCCOc2cccc(F)c2F)c(Br)c1O` the value was 88%.
As to `Cc1c(OCCCCSc2cccnc2)ccc(C(=O)CC(C)C)c1O`, the Potentiation is 26%.
The same measure, in the same setting: with `Cc1c(OCCCCSc2ccncc2)ccc(C(=O)CC(C)C)c1O` the figure was 33%; with `Cc1c(OCc2cccc(CSc3ccncc3)c2)ccc(C(=O)CC(C)C)c1O`, 68%; with `Cc1c(OCCCCOc2cccc(F)c2F)ccc(C(=O)CC(C)C)c1O`, 18%.
For `CC(C)CC(=O)c1ccc(OCCCCSc2ccncc2)c(Br)c1O`, the Potentiation amounted to 82%.
Same read-out and setting: with `Cc1c(OCCCCSc2ccccn2)ccc(C(=O)CC(C)C)c1O` the figure was 21%.
Same read-out and setting: for `Cc1c(OCc2ccc(Sc3ccncc3)cc2)ccc(C(=O)CC(C)C)c1O` the value was 38%; for `Cc1c(OCCCCOc2ccccn2)ccc(C(=O)CC(C)C)c1O`, 33%.
On the same count and under the same terms, with `Cc1c(OCCCCOc2ccccc2F)ccc(C(=O)CC(C)C)c1O` the figure was 30%; with `CC(C)CC(=O)c1ccc(OCCCCOc2ccccc2)c(Br)c1O`, 53%.
Regarding `Cc1c(OCc2ccc(Sc3ccncc3)cc2)ccc(C(=O)CC(C)(C)C)c1O`, the Potentiation was found to be 79%.
The same measure, in the same setting: with `Cc1c(OCCCCOc2ccc(-n3cncn3)cc2)ccc(C(=O)CC(C)C)c1O` the figure was 18%; with `CC(C)CC(=O)c1ccc(OCCCCOc2cccnc2)c(Br)c1O`, 67%.

Tested on in a further series: not listed separately
Description: Ratio of brain to plasma levels was determined upon administration at 20 mpk intraperitoneally after 2 h. To be noted: rat, brain and plasma, ip, 20 mg/kg. Type of series: ADME.
The Kp is tissue or fluid exposure divided by exposure in the circulation. Turning to `Cc1c(OCCCCSc2ccncc2)ccc(C(=O)CC(C)C)c1O`, the Kp at 2 h was found to be 1.1.
As to `COc1ccccc1Oc1ccc(N(Cc2cccnc2)S(=O)(=O)CC(F)(F)F)cc1`, the Kp at 2 h is 0.15.
Still for that read-out and setting: for `Cc1c(OCc2cccc(CSc3ccncc3)c2)ccc(C(=O)CC(C)C)c1O` the value was 1.2; for `Cc1c(OCCCCOc2ccc(-c3nn[nH]n3)cc2)ccc(C(=O)CC(C)C)c1O`, 0.03; for `CCCc1c(OCCCCOc2ccc(-c3nnn[nH]3)cc2)ccc(C(C)=O)c1O`, 0.01.
Turning to `Cc1c(OCc2ccc(Sc3ccncc3)cc2)ccc(C(=O)CC(C)(C)C)c1O`, the Kp at 2 h was 0.21.

Tested on in a further series: not listed separately
The series can be described thus: Total clearance in rat plasma upon administration at 2 mpk iv or 10 mpk po. Type of series: ADME, organism-based. To be noted: 2 mg/kg.
As for `CC(C)CC(=O)c1ccc(OCCCCOc2cccc(F)c2F)c(Br)c1O`, the clearance was 75 mL/min/kg.
Same read-out and setting: for `Cc1c(OCCCCSc2ccncc2)ccc(C(=O)CC(C)C)c1O` the value was 33 mL/min/kg; for `COc1ccccc1Oc1ccc(N(Cc2cccnc2)S(=O)(=O)CC(F)(F)F)cc1`, 70 mL/min/kg.
The compound `Cc1c(OCCCCOc2ccc(-c3nn[nH]n3)cc2)ccc(C(=O)CC(C)C)c1O` yielded a clearance of 15 mL/min/kg.
Same read-out and setting: for `CCCc1c(OCCCCOc2ccc(-c3nnn[nH]3)cc2)ccc(C(C)=O)c1O` the value was 33 mL/min/kg.

Tested on in the next series: not listed separately
Description: Bioavailability in rat (dose 2 mg/kg i.v. and 10 mg/kg p.o.). Type of series: ADME, organism-based. To be noted: in vivo, po.
As usually defined, the bioavailability is dose-corrected exposure relative to a reference, in per cent. A lower bioavailability goes with little systemic uptake. Compound `CC(C)CC(=O)c1ccc(OCCCCOc2cccc(F)c2F)c(Br)c1O` registered a bioavailability of 0%.
Same read-out and setting: with `Cc1c(OCCCCSc2ccncc2)ccc(C(=O)CC(C)C)c1O` the figure was 3%; with `COc1ccccc1Oc1ccc(N(Cc2cccnc2)S(=O)(=O)CC(F)(F)F)cc1`, less than 1%; with `Cc1c(OCCCCOc2ccc(-c3nn[nH]n3)cc2)ccc(C(=O)CC(C)C)c1O`, 59%.
Compound `CCCc1c(OCCCCOc2ccc(-c3nnn[nH]3)cc2)ccc(C(C)=O)c1O` registered a bioavailability of 63%.

Values taken from ChEMBL document CHEMBL1138703, “Allosteric potentiators of the metabotropic glutamate receptor 2 (mGlu2). Part 2: 4-thiopyridyl acetophenones as non-tetrazole containing mGlu2 receptor potentiators” (Bioorg Med Chem Lett, 2004).
